Test results from ChEMBL document CHEMBL1125922, “Peptide leukotrienes: current status of research” (J Med Chem, 1991).

Tests used:
[1] = target: T1, Cysteinyl leukotriene receptor 1 (Cavia porcellus, UniProt Q2NNR5); experiment: Compound was evaluated for its ability to displace [3H]LTD4 from Cysteinyl leukotriene D4 receptor in guinea pig lung membranes; assay type: cell membranes, Membrane
T1 sequence (Q2NNR5 whole entry): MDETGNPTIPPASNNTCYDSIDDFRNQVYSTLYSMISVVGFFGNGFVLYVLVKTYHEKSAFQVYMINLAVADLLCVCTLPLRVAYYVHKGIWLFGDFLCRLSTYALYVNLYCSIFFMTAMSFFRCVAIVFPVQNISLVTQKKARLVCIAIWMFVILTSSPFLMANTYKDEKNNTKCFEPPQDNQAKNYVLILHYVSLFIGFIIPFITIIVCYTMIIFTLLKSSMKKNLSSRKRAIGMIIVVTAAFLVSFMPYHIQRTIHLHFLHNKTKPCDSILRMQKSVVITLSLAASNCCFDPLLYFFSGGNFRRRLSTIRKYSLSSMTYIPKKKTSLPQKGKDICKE

Cavia porcellus [2] = organism: Cavia porcellus; experiment: (§1) Antagonistic activity against LTD4 induced contraction in guinea pig trachea; assay type: functional
Cavia porcellus [3] = organism: Cavia porcellus; experiment: as §1; assay type: functional, organism-based; settings: for Kb: read-out: pA2 (converted)
Homo sapiens = organism: Homo sapiens; experiment: Antagonistic activity against LTD4 induced contraction in human bronchus; assay type: functional
[4] = target: T1, Cysteinyl leukotriene receptor 1; experiment: Compound was evaluated for its ability to displace [3H]LTD4 from LTD4 receptor in guinea pig lung membranes; assay type: cell membranes, Membrane
Cavia porcellus [5] = organism: Cavia porcellus; experiment: Antagonistic activity against LTD4 induced contraction in guinea pig lung parenchymal strips; assay type: functional; settings: Lung parenchyma, read-out: pA2 (converted)
Cavia porcellus [6] = organism: Cavia porcellus; experiment: Antagonistic activity against LTD4 induced contraction in guinea pig ileum; assay type: functional

Row | Structure (SMILES) | pKB (Cavia porcellus [2]) | Kb (Cavia porcellus [3]) | also measured
1 | CCCCC/C=C/C\C=C/C=C/C=C/[C@@H](Sc1ccc2c(=O)cc(C(=O)O)oc2c1)[C@H](O)CCCC(=O)O | – | – | IC50 [1]: 100 nM
2 | O=C(Nc1cccc2c(=O)cc(-c3nnn[nH]3)oc12)c1ccc(OCCCCc2ccccc2)cc1 | 7.5 | – | –
3 | O=C(O)CCS[C@@H](CC(=O)O)c1ccccc1CCCCCCCCc1ccccc1 | 7.6 | – | Ki [1]: 60 nM
4 | CCCCCCCCC/C=C\C=C\[C@@H](SCCC(=O)O)[C@@H](O)c1cccc(-c2nnn[nH]2)c1 | – | 7.94 nM | –
5 | CCC(CC)(CC(=O)Nc1cccc(/C=C/c2nc(C3CCC3)cs2)c1)C(=O)O | – | – | pKB (Homo sapiens): 9.3
6 | CCCc1c(OCCCOc2cc(NC(=O)c3nn[nH]n3)c(C)cc2Cl)ccc(C(C)=O)c1O [CGP-35949] | – | 39.8 nM | –
7 | CCCc1c(OCC(O)COc2ccc3c(=O)cc(C(=O)O)oc3c2CCC)ccc(C(C)=O)c1O (stereo unspecified) [FPL-55712] | – | 200 nM | –
8 | COc1cc(C(=O)NS(=O)(=O)c2ccccc2)ccc1Cn1ncc2ccc(NC(=O)OC3CCCC3)cc21 [ICI-198615] | – | 0.0794 nM | Ki [4]: 0.3 nM
9 | CCCc1c(OCCCS(=O)(=O)c2ccc(C(=O)CCC(=O)O)cc2)ccc(C(C)=O)c1O [L-648051] | – | 50.1 nM | –
10 | CCCc1c(OCCCSc2ccc([C@@H](O)[C@H](C)CC(=O)O)cc2)ccc(C(C)=O)c1O [L-649923] | – | 63.1 nM | Ki [4]: 400 nM
11 | CCCc1c(COc2ccc(Cc3nnn[nH]3)cc2)ccc(C(C)=O)c1O [LY-163443] | 7.5 | – | –
12 | CCCc1c(OCCCCc2nnn(CCCCc3nnn[nH]3)n2)ccc(C(C)=O)c1O [LY-203647] | 6.4 | – | –
13 | CN(C)C(=O)CCSC(SCCC(=O)O)c1cccc(/C=C/c2ccc3ccc(Cl)cc3n2)c1 (stereo unspecified) [MK-571] | 9.3 | – | Ki [1]: 0.2 nM
14 | O=C(O)CCS[C@H](c1ccccc1CCCCCCCCc1ccccc1)[C@@H](O)C(=O)O [POBILUKAST] | – | 2.51 nM | –
15 | c1ccc(Cc2nn[nH]n2)c(COc2ccc(OCc3ccc4ccccc4n3)cc2)c1 [RG-12525] | – | – | Kb (Cavia porcellus [5]): 3.98 nM
16 | O=S(=O)(Nc1cccc(OCc2ccc3ccccc3n2)c1)C(F)(F)F [RITOLUKAST] | 7.8 | – | –
17 | CCCc1c(OCCCOc2ccc3c(c2CCC)OC(C)(CCC(=O)O)CC3=O)ccc(C(C)=O)c1O (stereo unspecified) [SC-39070] | – | – | pKB (Cavia porcellus [6]): 8.2
18 | O=C(O)c1ccccc1Nc1cccc(OCc2ccc3ccccc3n2)c1 [SR-2640] | 8.7 | – | –
19 | CCCc1c(OCCCCc2nnn[nH]2)ccc(C(C)=O)c1O [TOMELUKAST] | 6.9 | – | Ki [4]: […]
20 | CCCc1c(OCCCSc2nnc(SCC(=O)O)s2)ccc(C(C)=O)c1O [YM-16638] | – | – | IC50 (Cavia porcellus [3]): 160 nM
21 | COc1cc(C(=O)NS(=O)(=O)c2ccccc2C)ccc1Cc1cn(C)c2ccc(NC(=O)OC3CCCC3)cc12 [ZAFIRLUKAST] | 9.5 | – | –
